In ChEMBL document CHEMBL6134895, “Strategic Design and Optimization of Umifenovir Analogues: Balancing Antiviral Efficacy and hERG Toxicity against SARS-CoV-2” (J Med Chem, 2025):

Tested on: SARS-CoV-2
Assay: Antiviral activity against SARS CoV-2 assessed as inhibition of viral entry into HEK293T-hACE2 cells pretreated compound with HIV-1-based SARS CoV-2 pseudovirus harboring reporter NanoLuc luciferase gene for 1 hr followed by exposure to HEK293T-hACE2 cells measured after 48 hrs by Nano-Glo luciferase assay
Format: functional, organism-based
Conditions: Severe acute respiratory syndrome coronavirus 2

Cc1ccc(Cn2c(CSc3c(C)cc(C)cc3C)c(C(=O)NC3CCN(C(C)C)CC3)c3cc(O)c(Br)cc32)cc1
IC50: 170 nM

Cc1ccc(Cn2c(CSc3c(C)cc(C)cc3C)c(C(=O)N3CCC(N4CCOCC4)CC3)c3cc(O)c(Br)cc32)cc1
IC50: 280 nM

CCOC(=O)c1c(CSc2ccccc2)n(C)c2cc(Br)c(O)c(CN(C)C)c12
IC50: 2300 nM
